Data: patent publication US5622962A, “5α-reductase inhibitors” (priority 1995, dated 1997)
Read-outs that look alike come from different tables or passages of the source.

Key:
[1] = target: T1, Type II 5α-Reductase from Human Prostate (Homo sapiens, UniProt P31213); test: Human Type II 5α-reductase assay (conversion of [3H]-testosterone to 5α-reduced metabolites); format: biochemical; conditions: for percent inhibition of Type II AR: 0.3 μM
T1 construct: The same procedure as above was used for preparations using tissue from prostate surgery; from tissue; host or cells: human prostate tissue from surgery, homogenate, 100,000×g pellet
T1 sequence (P31213 1-254): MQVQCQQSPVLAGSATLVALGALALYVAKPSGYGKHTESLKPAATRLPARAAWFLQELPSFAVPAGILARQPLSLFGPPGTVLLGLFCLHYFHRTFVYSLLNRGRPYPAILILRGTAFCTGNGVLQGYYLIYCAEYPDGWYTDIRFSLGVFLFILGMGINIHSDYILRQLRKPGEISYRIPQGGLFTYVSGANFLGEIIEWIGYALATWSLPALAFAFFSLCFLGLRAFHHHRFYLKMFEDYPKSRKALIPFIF

[2] = target: T2, Type I 5α-Reductase from Human Scalp (Homo sapiens, UniProt P18405); test: Human Type I 5α-reductase assay (conversion of [3H]-testosterone to 5α-reduced metabolites); format: biochemical
T2 construct: Scalp punch biopsies from graft recipient sites were obtained from human hair transplant procedures; from tissue; host or cells: human scalp punch biopsies (hair transplant graft recipient sites), homogenate, 100,000×g pellet
T2 sequence (P18405 1-259): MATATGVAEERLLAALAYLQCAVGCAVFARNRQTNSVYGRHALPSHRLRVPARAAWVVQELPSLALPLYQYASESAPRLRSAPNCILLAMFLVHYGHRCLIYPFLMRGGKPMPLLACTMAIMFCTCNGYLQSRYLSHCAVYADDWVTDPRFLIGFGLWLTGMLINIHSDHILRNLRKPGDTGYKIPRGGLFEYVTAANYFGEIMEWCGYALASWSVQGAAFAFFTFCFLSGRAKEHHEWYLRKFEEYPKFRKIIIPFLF

[3] = pH 5.5, read-out: percent inhibition of Type II AR
[4] = pH 7.5, read-out: percent inhibition of Type I AR
[5] = sodium acetate pH 5.5, 25°, 30 min, compared to control reaction mixtures
[6] = pH 5.5, 0.3 μM, sodium acetate pH 5.5, 25°, 30 min, compared to control reaction mixtures, read-out: percent inhibition of Type II AR
[7] = pH 7.5, 0.3 μM, 50 nM [3H]-testosterone, pH 7.5, 25°, 180 min, compared to control reaction mixtures, read-out: percent inhibition of Type I AR

| Compound | percent inhibition of Type II AR [1, 5] [%] | inhibition at 0.3 µM [1, 6] [%] | inhibition at 0.3 µM [2, 7] [%] | inhibition at 0.3 µM [1, 3] [%] | inhibition at 0.3 µM [2, 4] [%] |
| --- | --- | --- | --- | --- | --- |
| CN1C(=O)CC[C@]2(C)c3ccc(-c4ccc([N+](=O)[O-])cc4C(F)(F)F)cc3CC[C@@H]12 [Example 133, (+)-(4aR)-(10bR)-4-methyl-8-(4-nitro-2-trifluoromethylphenyl)-10b-methyl-1,2,3,4,4a,5,6,10b-octahydrobenzo[f]-quinolin-3-one] | – | – | – | 34 | 77 |
| C[C@]12CCC(=O)N[C@@H]1CCc1cc(Sc3ccc4ccccc4n3)ccc12 [Example 19, (4aR)-(10bR)-8-(2-quinolinylthio)-10b-methyl-1,2,3,4,4a,5,6,10b-octahydrobenzo[f]quinolin-3-one] | – | 56 | 59 | – | – |
| COc1ccccc1-c1ccc2c(c1)CC[C@H]1N(C)C(=O)CC[C@]21C [Example 39, (+)-(4aR)-(10bR)-4-methyl-8-(2-methoxyphenyl)-10b-methyl-1,2,3,4,4a,5,6,10b-octahydrobenzo[f]quinolin-3-one] | – | 34 | 81 | – | – |
| CN1C(=O)CC[C@]2(C)c3ccc(-c4ccc(F)cc4C(F)(F)F)cc3CC[C@@H]12 [Example 31, (+)-(4aR)-(10bR)-4-methyl-8-(2-trifluoromethyl-4-fluorophenyl)-10b-methyl-1,2,3,4,4a,5,6,10b-octahydrobenzo[f]-quinolin-3-one] | – | – | – | 22 | 84 |
| C[C@]12CCC(=O)N[C@@H]1CCc1cc(Sc3cccc(Cl)c3)ccc12 [Example 8, (+)-(4aR)-(10bR)-8-(3-chlorophenylthio)-10b-methyl-1,2,3,4,4a,5,6,10b-octahydrobenzo[f]quinolin-3-one] | – | 59 | 22 | – | – |
| CN1C(=O)CC[C@]2(C)c3ccc(-c4ccc(C(F)(F)F)cc4F)cc3CC[C@@H]12 [Example 210, (+)-(4aR)-(10bR)-4-methyl-8-(2-fluoro-4-trifluoromethylphenyl)-10b-methyl-1,2,3,4,4a,5,6,10b-octahydrobenzo[f]-quinolin-3-one] | – | – | – | 38 | 81 |
| CN1C(=O)CC[C@]2(C)c3ccc(-c4ccccc4)cc3CC[C@@H]12 [Example 49, (+)-(4aR)-(10bR)-4-methyl-8-phenyl-10b-methyl-1,2,3,4,4a,5,6,10b-octahydrobenzo[f]quinolin-3-one] | – | 4 | 96 | – | – |
| Cc1ccccc1Sc1ccc2c(c1)CC[C@H]1NC(=O)CC[C@]21C [Example 9, (+)-(4aR)-(10bR)-8-(2-methylphenylthio)-10b-methyl-1,2,3,4,4a,5,6,10b-octahydrobenzo[f]quinolin-3-one] | – | 31 | 3 | – | – |
| CN1C(=O)CC[C@]2(C)c3ccc(Sc4ccc5ccccc5c4)cc3CC[C@@H]12 [Example 98, (+)-(4aR)-(10bR)-4,10b-dimethyl-8-(2-naphthylthio)-1,2,3,4,-4a,5,6,10b-octahydrobenzo[f]quinolin-3-one] | 44 | 61 | 76 | – | – |
| CN1C(=O)CC[C@]2(C)c3ccc(Sc4ccc(Cl)cc4)cc3CC[C@@H]12 [Example 95, (+)-(4aR)-(10bR)-4,10b-dimethyl-8-(4-chlorophenylthio)-1,2,3,4,-4a,5,6,10b-octahydrobenzo[f]quinolin-3-one] | – | 35 | 95 | – | – |
| CCCN(CC1CC1)c1ccc(-c2ccc3c(c2)CC[C@H]2N(C)C(=O)CC[C@]32C)c2ccccc12 [Example 68, (+)-(4aR)-(10bR)-4-methyl-8-(4-[N-propyl,N-cyclopropylmethylamino]-1-naphthyl)-10b-methyl-1,2,3,4,4a,5,6,10b-octahydrobenzo[f]quinolin-3-one] | – | 37 | 31 | – | – |
| CN1C(=O)CC[C@]2(C)c3ccc(Sc4ccc5ccccc5n4)cc3CC[C@@H]12 [Example 107, (+)-(4aR)-(10bR)-4,10b-dimethyl-8-(2-quinolinylthio)-1,2,3,4,-4a,5,6,10b-octahydrobenzo[f]quinolin-3-one] | – | 83 | 80 | – | – |

More lines, main results first:

| percent inhibition of Type II AR [1, 5] [%] | inhibition at 0.3 µM [1, 6] [%] | inhibition at 0.3 µM [2, 7] [%] | Compound | inhibition at 0.3 µM [1, 3] [%] | inhibition at 0.3 µM [2, 4] [%] |
| --- | --- | --- | --- | --- | --- |
| 28 | 19 | 65 | CN1C(=O)CC[C@]2(C)c3ccc(SCc4cc5ccccc5cn4)cc3CC[C@@H]12 [Example 191, (+)-(4aR)-(10bR)-8-(3-isoquinolinylmethylthio)-4,10b-dimethyl-1,2,3,4,4a,5,6,10b-octahydrobenzo[f]quinoline-3-one] | – | – |
| – | 79 | 90 | CCCc1cccc2sc(Sc3ccc4c(c3)CC[C@H]3N(C)C(=O)CC[C@]43C)nc12 [Example 186, (+)-(4aR)-(10bR)-4-methyl-8-(4-propyl-2-benzothiazolylthio)-10b-methyl-1,2,3,4,4a,5,6,10b-octahydrobenzo[f]quinolin-3-one] | – | – |
| – | 67 | 84 | Cc1ccc(S(=O)(=O)n2ccc3cc(-c4ccc5c(c4)CC[C@H]4N(C)C(=O)CC[C@]54C)ccc32)cc1 [Example 236, (+)-(4aR)-(10bR)-4-methyl-8-(1-p-toluenesulfonylindol-5-yl)-10b-methyl-1,2,3,4,4a,5,6,10b-octahydrobenzo[f]quinolin-3-one] | – | – |
| 64 | 72 | 59 | CN1C(=O)CC[C@]2(C)c3ccc(-c4cncc5ccccc45)cc3CC[C@@H]12 [Example 200, (+)-(4aR)-(10bR)-4-methyl-8-(4-isoquinolinyl)-10b-methyl-1,2,3,4,4a,5,6,10b-octahydrobenzo [f]quinolin-3-one] | – | – |
| – | 8 | 25 | C[C@]12CCC(=O)N[C@@H]1CCc1cc(CSc3nc4ccccc4s3)ccc12 [Example 290, (4aR)-(10bR)-8-(2-benzothiazolyl)thiomethyl-10b-methyl-1,2,3,4,4a,5,6,10b-octahydrobenzo[f]quinolin-3-one] | – | – |
| 92 | 90 | 64 | CN1C(=O)CC[C@]2(C)c3ccc(Sc4nc5ccccc5s4)cc3CC[C@@H]12 [Example 112, (4aR)-(10bR)-4,10b-dimethyl-8-(2-benzothiazolylthio)-1,2,3,4,4a,5,6,10b-octahydrobenzo[f]quinolin-3-one] | – | – |
| – | 28 | 61 | COc1ccc(-c2c(-c3ccccc3)c(Sc3ccc4c(c3)CC[C@H]3N(C)C(=O)CC[C@]43C)nc3ccccc23)cc1 [Example 179, (+)-(4aR)-(10bR)-4-methyl-8-[3-phenyl-4-(4-methoxyphenyl)-2-quinolinylthio]-10b-methyl-1,2,3,4,4a,5,6, 10b-octahydrobenzo[f]quinolin-3-one] | – | – |
| – | 32 | 34 | CN1C(=O)CC[C@]2(C)c3ccc(-c4cccc(NC(=O)C(C)(C)C)c4)cc3CC[C@@H]12 [Example 274, (+)-(4aR)-(10bR)-4-methyl-8-(3-[pivaloylamino]phenyl)-10b-methyl-1,2,3,4,4a,5,6,10b-octahydrobenzo[f]quinolin-3-one] | – | – |
| – | 87 | 79 | CN1C(=O)CC[C@]2(C)c3ccc(Sc4nc5c(F)cccc5s4)cc3CC[C@@H]12 [Example 162, (+)-(4aR)-(10bR)-4-methyl-8-(4-fluoro-2-benzothiazolylthio)-10b-methyl-1,2,3,4,4a,5,6,10b-octahydrobenzo[f]quinolin-3-one] | – | – |
